Test results: ChEMBL document CHEMBL5550120, “SuFEx-based chemical diversification for the systematic discovery of CRBN molecular glues” (Bioorg Med Chem, 2024)
The source made the active and inactive calls. No cut-off for these calls is given here.

Tests used:
MOLT-4 [1] = assay: Antiproliferative activity against wild type human MOLT-4 cells assessed as reduction in cell viability measured after 3 days by ATP-dependent luminescence assay; type: functional, cell-based; details: MOLT-4, 72 h
MV4-11 [2] = assay: Antiproliferative activity against wild type human MV4-11 cells assessed as reduction in cell viability measured after 3 days by ATP-dependent luminescence assay; type: functional, cell-based; details: MV4-11, 72 h
BE(2)-C [3] = assay: Antiproliferative activity against wild type human BE2C cells assessed as reduction in cell viability measured after 3 days by ATP-dependent luminescence assay; type: functional, cell-based; details: 72 h
[4] = target: T1, Protein cereblon/Eukaryotic peptide chain release factor GTP-binding subunit ERF3A (Homo sapiens, UniProt Q96SW2+P15170); assay: Molecular glue activity at CRBN/HiBiT-tagged GSPT1 in human MOLT-4 cells assessed as induction of GSPT1 degradation measured after 3 hrs by immunoblot analysis; type: cell-based
Target sequence in this assay (Q96SW2 whole entry): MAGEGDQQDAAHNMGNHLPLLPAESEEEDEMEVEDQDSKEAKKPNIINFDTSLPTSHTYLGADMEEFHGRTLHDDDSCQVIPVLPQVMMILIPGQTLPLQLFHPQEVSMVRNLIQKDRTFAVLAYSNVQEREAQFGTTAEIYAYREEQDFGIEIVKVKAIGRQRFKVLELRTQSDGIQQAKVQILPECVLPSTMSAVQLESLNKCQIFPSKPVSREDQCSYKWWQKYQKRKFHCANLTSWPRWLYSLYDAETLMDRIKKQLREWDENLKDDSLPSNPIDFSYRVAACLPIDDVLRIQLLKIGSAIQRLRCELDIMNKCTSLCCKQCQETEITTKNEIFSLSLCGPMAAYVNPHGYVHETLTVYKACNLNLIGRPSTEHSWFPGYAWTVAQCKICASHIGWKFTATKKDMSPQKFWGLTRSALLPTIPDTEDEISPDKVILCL
Target sequence in this assay (P15170 whole entry): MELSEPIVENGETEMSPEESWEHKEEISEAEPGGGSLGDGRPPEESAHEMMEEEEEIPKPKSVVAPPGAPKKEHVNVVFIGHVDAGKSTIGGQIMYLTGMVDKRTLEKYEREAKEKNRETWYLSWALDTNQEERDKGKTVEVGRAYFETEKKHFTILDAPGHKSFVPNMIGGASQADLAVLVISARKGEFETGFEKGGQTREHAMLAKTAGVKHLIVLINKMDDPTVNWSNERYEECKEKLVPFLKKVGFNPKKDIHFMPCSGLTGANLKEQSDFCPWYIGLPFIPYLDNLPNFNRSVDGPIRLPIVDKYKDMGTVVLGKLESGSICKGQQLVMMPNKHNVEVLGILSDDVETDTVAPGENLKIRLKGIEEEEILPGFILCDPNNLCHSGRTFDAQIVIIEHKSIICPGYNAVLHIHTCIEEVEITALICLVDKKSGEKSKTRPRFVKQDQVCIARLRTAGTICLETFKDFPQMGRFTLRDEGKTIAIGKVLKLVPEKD

[5] = target: T1, Protein cereblon/Eukaryotic peptide chain release factor GTP-binding subunit ERF3A; assay: Molecular glue activity at CRBN/HiBiT-tagged GSPT1 in wild type human MV4-11 cells assessed as induction of GSPT1 degradation measured after 3 hrs by immunoblot analysis; type: cell-based
Target sequence in this assay (Q96SW2 whole entry): as the sequence (Q96SW2 whole entry) above
Target sequence in this assay (P15170 whole entry): as the sequence (P15170 whole entry) above

[6] = target: T1, Protein cereblon/Eukaryotic peptide chain release factor GTP-binding subunit ERF3A; assay: Molecular glue activity at CRBN/HiBiT-tagged GSPT1 in wild type human BE2C cells assessed as induction of GSPT1 degradation measured after 3 hrs by immunoblot analysis; type: cell-based
Target sequence in this assay (Q96SW2 whole entry): as the sequence (Q96SW2 whole entry) above
Target sequence in this assay (P15170 whole entry): as the sequence (P15170 whole entry) above

[7] = Selectivity index, ratio of EC50 for antiproliferative activity against human BE2C cells to EC50 for antiproliferative activity against human MOLT-4 cells; type: functional
[8] = Selectivity index, ratio of EC50 for antiproliferative activity against human BE2C cells to EC50 for antiproliferative activity against human MV4-11 cells; type: functional
MOLT-4 [9] = assay: Antiproliferative activity against CRBN depleted human MOLT-4 cells assessed as reduction in cell viability measured after 3 days by ATP-dependent luminescence assay; type: functional, cell-based; details: time 3.0 day
MOLT-4 [10] = assay: Antiproliferative activity against human MOLT-4 cells harboring GSPT1 G575N mutant assessed as reduction in cell viability measured after 3 days by ATP-dependent luminescence assay; type: functional, cell-based; details: time 3.0 day
MV4-11 [11] = assay: Antiproliferative activity against CRBN depleted human MV4-11 cells assessed as reduction in cell viability measured after 3 days by ATP-dependent luminescence assay; type: functional, cell-based; details: time 3.0 day
MV4-11 [12] = assay: Antiproliferative activity against human MV4-11 cells harboring GSPT1 G575N mutant assessed as reduction in cell viability measured after 3 days by ATP-dependent luminescence assay; type: functional, cell-based; details: time 3.0 day
BE(2)-C [13] = assay: Antiproliferative activity against CRBN depleted human BE2C cells assessed as reduction in cell viability measured after 3 days by ATP-dependent luminescence assay; type: functional, cell-based; details: time 3.0 day
BE(2)-C [14] = assay: Antiproliferative activity against human BE2C cells harboring GSPT1 G575N mutant assessed as reduction in cell viability measured after 3 days by ATP-dependent luminescence assay; type: functional, cell-based; details: time 3.0 day
[15] = target: DNA-binding protein Ikaros (Homo sapiens) (UniProt Q13422); assay: Induction of IKZF1 degradation in human MV4-11 cells at 3 uM measured after 3 hrs by proteomics analysis; type: cell-based
[16] = target: T1, Protein cereblon/Eukaryotic peptide chain release factor GTP-binding subunit ERF3A; assay: Molecular glue activity at CRBN/GSPT1 in CRBN depleted human MOLT-4 cells assessed as induction of GSPT1 degradation at 3 uM measured after 3 hrs by immunoblot analysis; type: cell-based
Target sequence in this assay (P15170 whole entry, looked up): as the sequence (P15170 whole entry) above
Target sequence in this assay (Q96SW2 whole entry, looked up): as the sequence (Q96SW2 whole entry) above

[17] = target: T1, Protein cereblon/Eukaryotic peptide chain release factor GTP-binding subunit ERF3A; assay: Molecular glue activity at CRBN/GSPT1 in human MOLT-4 cells harboring GSPT1 G575N mutant assessed as induction of GSPT1 degradation at 3 uM measured after 3 hrs by immunoblot analysis; type: cell-based
Target sequence in this assay (P15170 whole entry, looked up): as the sequence (P15170 whole entry) above
Target sequence in this assay (Q96SW2 whole entry, looked up): as the sequence (Q96SW2 whole entry) above

[18] = target: T1, Protein cereblon/Eukaryotic peptide chain release factor GTP-binding subunit ERF3A; assay: Molecular glue activity at CRBN/GSPT1 in CRBN depleted human MV4-11 cells assessed as induction of GSPT1 degradation at 3 uM measured after 3 hrs by immunoblot analysis; type: cell-based
Target sequence in this assay (P15170 whole entry, looked up): as the sequence (P15170 whole entry) above
Target sequence in this assay (Q96SW2 whole entry, looked up): as the sequence (Q96SW2 whole entry) above

[19] = target: T1, Protein cereblon/Eukaryotic peptide chain release factor GTP-binding subunit ERF3A; assay: Molecular glue activity at CRBN/GSPT1 in human MV4-11 cells harboring GSPT1 G575N mutant assessed as induction of GSPT1 degradation at 3 uM measured after 3 hrs by immunoblot analysis; type: cell-based
Target sequence in this assay (P15170 whole entry, looked up): as the sequence (P15170 whole entry) above
Target sequence in this assay (Q96SW2 whole entry, looked up): as the sequence (Q96SW2 whole entry) above

[20] = target: T1, Protein cereblon/Eukaryotic peptide chain release factor GTP-binding subunit ERF3A; assay: Molecular glue activity at CRBN/GSPT1 in CRBN depleted human BE2C cells assessed as induction of GSPT1 degradation at 3 uM measured after 3 hrs by immunoblot analysis; type: cell-based
Target sequence in this assay (P15170 whole entry, looked up): as the sequence (P15170 whole entry) above
Target sequence in this assay (Q96SW2 whole entry, looked up): as the sequence (Q96SW2 whole entry) above

[21] = target: T1, Protein cereblon/Eukaryotic peptide chain release factor GTP-binding subunit ERF3A; assay: Molecular glue activity at CRBN/GSPT1 in human BE2C cells harboring GSPT1 G575N mutant assessed as induction of GSPT1 degradation at 3 uM measured after 3 hrs by immunoblot analysis; type: cell-based
Target sequence in this assay (P15170 whole entry, looked up): as the sequence (P15170 whole entry) above
Target sequence in this assay (Q96SW2 whole entry, looked up): as the sequence (Q96SW2 whole entry) above

[22] = target: T1, Protein cereblon/Eukaryotic peptide chain release factor GTP-binding subunit ERF3A; assay: Molecular glue activity at CRBN/HiBiT-tagged GSPT1 in human MOLT-4 cells assessed as induction of GSPT1 degradation at 3 uM pretreated with pomalidomide at 25 uM for 1 hr followed by compound treatment and measured after 3 hrs by immunoblot analysis; type: cell-based
[23] = target: T1, Protein cereblon/Eukaryotic peptide chain release factor GTP-binding subunit ERF3A; assay: Molecular glue activity at CRBN/HiBiT-tagged GSPT1 in human MV4-11 cells assessed as induction of GSPT1 degradation at 3 uM pretreated with pomalidomide at 25 uM for 1 hr followed by compound treatment and measured after 3 hrs by immunoblot analysis; type: cell-based
[24] = target: T1, Protein cereblon/Eukaryotic peptide chain release factor GTP-binding subunit ERF3A; assay: Molecular glue activity at CRBN/HiBiT-tagged GSPT1 in human BE2C cells assessed as induction of GSPT1 degradation at 3 uM pretreated with pomalidomide at 25 uM for 1 hr followed by compound treatment and measured after 3 hrs by immunoblot analysis; type: cell-based
[25] = target: T1, Protein cereblon/Eukaryotic peptide chain release factor GTP-binding subunit ERF3A; assay: Molecular glue activity at CRBN/HiBiT-tagged GSPT1 in human MOLT-4 cells assessed as induction of GSPT1 degradation at 3 uM pretreated with MLN4924 at 1 uM for 1 hr followed by compound treatment and measured after 3 hrs by immunoblot analysis; type: cell-based
[26] = target: T1, Protein cereblon/Eukaryotic peptide chain release factor GTP-binding subunit ERF3A; assay: Molecular glue activity at CRBN/HiBiT-tagged GSPT1 in human MV4-11 cells assessed as induction of GSPT1 degradation at 3 uM pretreated with MLN4924 at 1 uM for 1 hr followed by compound treatment and measured after 3 hrs by immunoblot analysis; type: cell-based
[27] = target: T1, Protein cereblon/Eukaryotic peptide chain release factor GTP-binding subunit ERF3A; assay: Molecular glue activity at CRBN/HiBiT-tagged GSPT1 in human BE2C cells assessed as induction of GSPT1 degradation at 3 uM pretreated with MLN4924 at 1 uM for 1 hr followed by compound treatment and measured after 3 hrs by immunoblot analysis; type: cell-based
[28] = target: T1, Protein cereblon/Eukaryotic peptide chain release factor GTP-binding subunit ERF3A; assay: Molecular glue activity at CRBN/HiBiT-tagged GSPT1 in human MOLT-4 cells assessed as induction of GSPT1 degradation at 3 uM pretreated with carfilzomib at 500 nM for 1 hr followed by compound treatment and measured after 3 hrs by immunoblot analysis; type: cell-based
[29] = target: T1, Protein cereblon/Eukaryotic peptide chain release factor GTP-binding subunit ERF3A; assay: Molecular glue activity at CRBN/HiBiT-tagged GSPT1 in human MV4-11 cells assessed as induction of GSPT1 degradation at 3 uM pretreated with carfilzomib at 500 nM for 1 hr followed by compound treatment and measured after 3 hrs by immunoblot analysis; type: cell-based
[30] = target: T1, Protein cereblon/Eukaryotic peptide chain release factor GTP-binding subunit ERF3A; assay: Molecular glue activity at CRBN/HiBiT-tagged GSPT1 in human BE2C cells assessed as induction of GSPT1 degradation at 3 uM pretreated with carfilzomib at 500 nM for 1 hr followed by compound treatment and measured after 3 hrs by immunoblot analysis; type: cell-based
MV4-11 [31] = assay: Downregulation of GSPT1 protein abundance in human MV4-11 cells at 3 uM measured after 3 hrs by proteomics analysis; type: functional, cell-based
MV4-11 [32] = assay: Downregulation of GSPT2 protein abundance in human MV4-11 cells at 3 uM measured after 3 hrs by proteomics analysis; type: functional, cell-based
[33] = target: DNA-binding protein Ikaros (Homo sapiens) (UniProt Q13422); assay: Induction of cHiBiT-tagged IKZF1 degradation in human MV4-11 cells; type: cell-based
[34] = target: DNA-binding protein Ikaros (Homo sapiens) (UniProt Q13422); assay: Induction of IKZF1 degradation in human MV4-11 cells at 3 uM measured after 3 hrs by immunoblot analysis; type: cell-based

DNA-binding protein Ikaros (Homo sapiens), sequence (Q13422 whole entry): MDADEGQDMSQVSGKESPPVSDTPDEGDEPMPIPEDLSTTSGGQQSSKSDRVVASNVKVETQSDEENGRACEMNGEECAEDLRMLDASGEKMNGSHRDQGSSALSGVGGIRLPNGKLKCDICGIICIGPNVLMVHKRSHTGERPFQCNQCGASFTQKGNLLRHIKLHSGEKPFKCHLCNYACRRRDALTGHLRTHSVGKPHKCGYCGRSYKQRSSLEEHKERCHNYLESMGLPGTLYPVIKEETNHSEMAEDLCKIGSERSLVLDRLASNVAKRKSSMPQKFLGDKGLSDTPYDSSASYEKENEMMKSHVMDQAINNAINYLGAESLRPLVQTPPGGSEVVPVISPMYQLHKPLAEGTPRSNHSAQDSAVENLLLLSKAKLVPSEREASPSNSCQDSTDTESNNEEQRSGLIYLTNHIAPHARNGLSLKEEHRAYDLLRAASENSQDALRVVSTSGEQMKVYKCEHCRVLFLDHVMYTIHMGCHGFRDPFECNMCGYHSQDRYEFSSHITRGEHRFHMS

Row | SMILES | EC50 (MOLT-4 [1]) | EC50 (MV4-11 [2]) | EC50 (BE(2)-C [3]) | DC50 [4] | DC50 [5] | DC50 [6] | Ratio EC50 [7] | Ratio EC50 [8] | Activity (MOLT-4 [9]) | Activity (MOLT-4 [10]) | Activity (MV4-11 [11]) | Activity (MV4-11 [12]) | Activity (BE(2)-C [13]) | Activity (BE(2)-C [14]) | Activity [16] | Activity [17] | Activity [18] | Activity [19] | Activity [20] | Activity [21] | other results
1 | Cc1cccc(Cl)c1OCCNS(=O)(=O)Nc1ccc2c(c1)CN(C1CCC(=O)NC1=O)C2=O (configuration not stated) | 180 nM | 190 nM | 12000 nM | 280 nM | 280 nM | 8000 nM | ~100 | ~100 | inactive | inactive | inactive | inactive | inactive | inactive | inactive | inactive | inactive | inactive | inactive | inactive | Activity [15]: inactive; Activity [22]: inactive; Activity [23]: inactive; Activity [24]: inactive; Activity [25]: inactive; Activity [26]: inactive; Activity [27]: inactive; Activity [28]: inactive; Activity [29]: inactive; Activity [30]: inactive; Activity (MV4-11 [31]): Active; Activity (MV4-11 [32]): Active; Activity [33]: Active; Activity [34]: Active
2 | CCC(C)(CCNS(=O)(=O)Nc1ccc2c(c1)CN(C1CCC(=O)NC1=O)C2=O)c1ccccc1OC (configuration not stated) | 420 nM | 410 nM | 42000 nM | 700 nM | 700 nM | 19000 nM | ~100 | ~100 | inactive | inactive | inactive | inactive | inactive | inactive | inactive | inactive | inactive | inactive | inactive | inactive | Activity [22]: inactive; Activity [23]: inactive; Activity [24]: inactive; Activity [25]: inactive; Activity [26]: inactive; Activity [27]: inactive; Activity [28]: inactive; Activity [29]: inactive; Activity [30]: inactive; Activity (MV4-11 [31]): Active; Activity (MV4-11 [32]): Active
3 | Cc1ccc(NC(=O)NCc2ccc3c(c2)CN(C2CCC(=O)NC2=O)C3=O)cc1Cl (configuration not stated) | < 1 nM | < 1 nM | < 5 nM | < 1 nM | < 1 nM | < 1 nM |  |  |  |  |  |  |  |  |  |  |  |  |  |  | 
4 | CC(C)CCOc1ccccc1OCCNS(=O)(=O)Nc1ccc2c(c1)CN(C1CCC(=O)NC1=O)C2=O (configuration not stated) | 60 nM | 40 nM | 13000 nM | 90 nM | 120 nM | 14000 nM | ~100 | ~100 | inactive | inactive | inactive | inactive | inactive | inactive | inactive | inactive | inactive | inactive | inactive | inactive | Activity [22]: inactive; Activity [23]: inactive; Activity [24]: inactive; Activity [25]: inactive; Activity [26]: inactive; Activity [27]: inactive; Activity [28]: inactive; Activity [29]: inactive; Activity [30]: inactive; Activity (MV4-11 [31]): Active; Activity (MV4-11 [32]): Active
